Reference: patent US20250129067A1 (Progentos Therapeutics, Inc., priority 2021, published 2025)

Legend:
PDGFRα = PDGFRα (Homo sapiens (Human), UniProt P16234); assay: PDGFRα kinase enzyme assay (Promega PDGFRα Kinase Enzyme System, ADP-Glo); format: biochemical; settings: 11-point dose response, 10,000 nM to 0.169 nM; 150 uM ATP; BLQ = below limit of quantitation; read-out: IC50 Values on PDGFRα Kinase Inhibition, IC50
Procedure, shortened: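 Purified PDGFRα protein (20 ng) reacted with test compound per the Promega kinase system protocol. ADP formed was measured by ADP-Glo luminescence against a standard curve, giving IC50.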

[1] = system: Oligodendrocyte progenitor cells (OPCs); assay: In vitro OPC differentiation assay, MBP expression (immunocytochemistry); settings: 72 hours of treatment; fold change over vehicle
Experimental: Cortices from postnatal day (P) 1-3 rats were dissected and collected into ice cold Hank's Balanced Salt Solution (HBSS). […] Briefly, the cortical cell suspension was centrifuged and washed with buffer (0.5% BSA in PBS) and labeled with Anti-A2B5 MicroBeads (10 μL beads per 1×10^7 cells) for 15 minutes at 4° C. Following the incubation, cells were washed once with BSA buffer to remove unlabeled beads. A2B^5 positive cells were eluted on the column using the AutoMACS® (Miltenyi, as per manufacturer's protocol using “possel-s” program). Eluted cells were further washed twice with OPC growth media. Cell count was performed using Countess III cell counter (ThermoFisher; AMQAX2000) and cells were plated.
A2B5+ OPCs were plated in poly-d-lysine (PDL) coated T75 flask at a density of ˜3 million cells per flask. […] TrypLE was normalized by adding 10 mL growth media and cells were centrifuged at 1400 rpm for 10 minutes. […] The plates were allowed to sit at room temperature for 15 minutes to ensure proper dispersion of cells in a well. The plates were then transferred to the incubator (37° C.; 5% CO2).
Cells were then incubated for 72 hours at 37° C., 5% CO2 before immunostaining for MBP marker expression.
Following 72 hours of treatment, cells were fixed with 4% paraformaldehyde for 15 minutes then washed three times in DPBS. Prior to staining, cells were blocked for 15 minutes in 10% normal goat serum containing 1% BSA and 0.1% Triton X-100 in DPBS. Primary antibody (MBP @ 1:2000; Abcam AB7349) was applied to cells overnight at 4° C. in incubation solution containing 1% normal goat serum, 1% BSA, and 0.1% Triton X-100 in DPBS.
The number of differentiated MBP+ cells was normalized to the total nuclei count and percent differentiated MBP+ cells were reported.

[2] = system: Oligodendrocyte progenitor cells (OPCs); assay: In vitro OPC differentiation assay, GPR17 expression (immunocytochemistry); settings: 3 μM (10× concentration, final 0.3 μM); 72 hours; fold change over vehicle

Sequence of PDGFRα (P16234 24-1089): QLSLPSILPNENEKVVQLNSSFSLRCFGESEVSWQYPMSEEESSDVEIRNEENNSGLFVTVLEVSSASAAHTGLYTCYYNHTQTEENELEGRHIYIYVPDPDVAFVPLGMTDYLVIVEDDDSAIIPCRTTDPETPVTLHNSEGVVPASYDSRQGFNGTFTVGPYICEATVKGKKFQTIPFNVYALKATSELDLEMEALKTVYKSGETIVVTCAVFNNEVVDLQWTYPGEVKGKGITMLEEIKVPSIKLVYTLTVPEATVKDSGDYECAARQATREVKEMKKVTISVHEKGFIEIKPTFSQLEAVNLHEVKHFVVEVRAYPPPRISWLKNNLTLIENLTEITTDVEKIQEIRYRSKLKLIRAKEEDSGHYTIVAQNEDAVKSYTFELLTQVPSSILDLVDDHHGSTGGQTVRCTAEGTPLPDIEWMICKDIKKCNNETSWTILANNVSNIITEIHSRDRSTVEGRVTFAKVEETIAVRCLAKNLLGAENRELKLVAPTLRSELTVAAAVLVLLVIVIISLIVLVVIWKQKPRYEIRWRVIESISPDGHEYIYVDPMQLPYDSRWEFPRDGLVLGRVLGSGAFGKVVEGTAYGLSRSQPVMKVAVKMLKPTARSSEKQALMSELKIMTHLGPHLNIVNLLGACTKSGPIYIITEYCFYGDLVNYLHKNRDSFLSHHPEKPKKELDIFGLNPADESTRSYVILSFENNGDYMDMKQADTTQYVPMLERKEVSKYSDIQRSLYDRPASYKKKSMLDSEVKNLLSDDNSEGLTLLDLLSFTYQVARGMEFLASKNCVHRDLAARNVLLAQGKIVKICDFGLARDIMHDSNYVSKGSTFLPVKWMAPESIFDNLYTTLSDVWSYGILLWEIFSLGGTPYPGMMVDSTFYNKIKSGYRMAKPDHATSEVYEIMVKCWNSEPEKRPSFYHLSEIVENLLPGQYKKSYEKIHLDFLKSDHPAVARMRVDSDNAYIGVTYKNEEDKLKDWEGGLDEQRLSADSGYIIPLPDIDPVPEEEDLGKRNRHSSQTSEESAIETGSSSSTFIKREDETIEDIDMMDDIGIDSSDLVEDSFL

Row | SMILES | IC50 (PDGFRα) [nM] | MBP Fold Induction (Over vehicle) [1] | GPR17 Fold Induction (Over Vehicle; 3 μM) [2]
1 | CN(Cc1ccccc1)S(=O)(=O)N1CCN(c2cnn3cc(-c4cnn(C)c4)ccc23)CC1 [Compound 158, N-benzyl-N-methyl-4-(6-(1-methyl-1H-pyrazol-4-yl)pyrazolo[1,5-a]pyridin-3-yl)piperazine-1-sulfonamide] | > 10000 | 4.88 | 4.57
2 | Cn1cc(-c2ccc3c(N4CCN(c5ncc(Cc6c[nH]c7ccccc67)cn5)CC4)cnn3c2)cn1 [Compound 173, 3-[(2-{4-[6-(1-methylpyrazol-4-yl)pyrazolo[1,5-a]pyridin-3-yl]piperazin-1-yl}pyrimidin-5-yl)methyl]-1H-indole] | 1100 | 0.49 | 6.75
3 | CC(C)C(O)c1cnc(N2CCN(c3cnn4cc(-c5cnn(C)c5)ccc34)CC2)nc1 (stereo not drawn) [Compound 176, 2-methyl-1-(2-{4-[6-(1-methyl-1H-pyrazol-4-yl)pyrazolo[1,5-a]pyridin-3-yl]piperazin-1-yl}pyrimidin-5-yl)propan-1-ol] | 2080 | 1.48 | 3.90
4 | CC(C)Cc1cnc(N2CCN(c3cnn4cc(-c5cnn(C)c5)ccc34)CC2)nc1 [Compound 189, 3-(4-(5-isobutylpyrimidin-2-yl)piperazin-1-yl)-6-(1-methyl-1H-pyrazol-4-yl)pyrazolo[1,5-a]pyridine] | 5280 | 4.70 | 7.61
5 | Cn1cc(-c2ccc3c(N4CCN(c5ncc(C(O)c6ccccc6)o5)CC4)cnn3c2)cn1 (stereo not drawn) [Compound 248, (2-(4-(6-(1-methyl-1H-pyrazol-4-yl)pyrazolo[1,5-a]pyridin-3-yl)piperazin-1-yl)oxazol-5-yl)(phenyl)methanol] | 1190 | 16.04 | 3.90
6 | c1ccc(Cc2cnc(N3CCN(c4cnn5cc(-c6cn[nH]c6)ccc45)CC3)nc2)cc1 [Compound 255, 3-[4-(5-benzylpyrimidin-2-yl)piperazin-1-yl]-6-(1H-pyrazol-4-yl)pyrazolo-[1,5-a]pyridine] | 1140 | 2.58 | 8.56
7 | C=C(c1ccc(F)cc1)c1cnc(N2CCN(c3cnn4cc(-c5cnn(C)c5)ccc34)CC2)nc1 [Compound 256, 3-(4-(5-(1-(4-fluorophenyl)vinyl)pyrimidin-2-yl)piperazin-1-yl)-6-(1-methyl-1H-pyrazol-4-yl)pyrazolo[1,5-a]pyridine] | 3200 | 8.70 | 4.15

These reach a lower IC50 (PDGFRα). Values come first.

Row | IC50 (PDGFRα) [nM] | MBP Fold Induction (Over vehicle) [1] | GPR17 Fold Induction (Over Vehicle; 3 μM) [2] | SMILES
8 | 517 | 12.61 | 5.98 | COC(c1ccc(F)cc1)c1cnc(N2CCN(c3cnn4cc(-c5cnn(C)c5)ccc34)CC2)nc1 (stereo not drawn) [Compound 263, 3-(4-(5-((4-fluorophenyl)(methoxy)methyl)pyrimidin-2-yl)piperazin-1-yl)-6-(1-methyl-1H-pyrazol-4-yl)pyrazolo[1,5-a]pyridine]
9 | 467 | 10.35 | 9.32 | CC(C)(C)OC(=O)N1CCN(c2cnn3cc(-c4cnn(C5CCOCC5)c4)ccc23)CC1 [Compound 235]
10 | 26.8 | 5.22 | 6.72 | CC(=O)OC(c1ccc(F)cc1)c1cnc(N2CCN(c3cnn4cc(-c5cnn(C)c5)ccc34)CC2)nc1 (stereo not drawn) [Compound 264, (4-fluorophenyl)(2-(4-(6-(1-methyl-1H-pyrazol-4-yl)pyrazolo[1,5-a]pyridin-3-yl)piperazin-1-yl)pyrimidin-5-yl)methyl acetate]
11 | 2.69 | 14.20 | 4.88 | C[C@@H](OC(=O)N1CCN(c2cnn3cc(-c4cnn(C)c4)ccc23)CC1)c1ccc(F)c(F)c1 [Compound 266, (1R)-1-(3,4-difluorophenyl]ethyl 4-[6-(1-methyl-1H-pyrazol-4-yl)pyrazolo[1,5-a]pyridin-3-yl]piperazine-1-carboxylate]
